Experimental findings from US5686424A, “2-oxoethyl derivatives as immunosuppressants” (Miles Inc., priority 1995, dated 1997) are described below.

Structures are written as SMILES.

One experiment concerns NF-AT. The experiment can be described thus: NF-AT Inhibition Assay Directed β-Galactosidase Expression in FGL-5 cells. The format is cell-based. The settings on record: 50% inhibition of NF-AT directed β-galactosidase activity in FGL-5 cells stimulated with phorbol dibutyrate and ionomycin; TABLE 3. Summed up: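 FGL-5 Jurkat cells (3 million cells/ml) carry NF-AT-site-driven lacZ. They were stimulated with phorbol dibutyrate plus ionomycin and incubated with compound 16-18 h at 37 °C, in duplicate wells with matched ethanol or DMSO vehicle controls. β-Galactosidase was read as fluorescence from 4-methylumbelliferyl-β-D-galactoside cleavage, giving percent inhibition.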

A further experiment addresses FKBP (Homo sapiens, UniProt P62942). The experiment can be described thus: PPIase Inhibition Assay. Type of experiment: biochemical. The settings on record: concentration of inhibitor required for 50% inhibition of enzyme activity; FKBP, substrate Succinyl-Ala-Phe-Pro-Phe-para-nitroanilide; TABLE I. The essentials:
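Chymotrypsin-coupled isomerization of Succinyl-Ala-Phe-Pro-Phe-para-nitroanilide by FKBP in ice-cold 25 mM HEPES pH 7.8, 100 mM NaCl, compound in DMSO. A390 followed 90 sec; first-order rate constants give % activity remaining after subtracting uncatalyzed rate; IC50 by linear regression of V-/V+ versus concentration.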

Chain of FKBP (P62942 whole entry): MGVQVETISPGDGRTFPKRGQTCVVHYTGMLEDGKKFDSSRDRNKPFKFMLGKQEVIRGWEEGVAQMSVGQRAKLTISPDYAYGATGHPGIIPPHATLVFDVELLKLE

As to `CC[C@H](C)[C@H](NC(=O)[C@@H]1CCCN1CC(=O)NC12CC3CC(CC(C3)C1)C2)C(=O)NCc1ccccc1` [Example 39, L-Isoleucine, N-[1-(2-Aminoadamant-1-yl-2-oxoethyl)-L-Prolyl] Benzylamide], the IC50 turned out to be 41 µM in the experiment with NF-AT and 15 µM at FKBP.

Take `CC[C@H](C)[C@H](NC(=O)[C@@H]1CCCN1CC(=O)C1CC2CC(C1C)C2(C)C)C(=O)NCc1ccccc1` (stereo partly drawn) [Example 41, L-Isoleucine, N-[1-[2-(2,6,6-Trimethyl-Bicyclo[3.1.1]hept-3-yl)-2-Oxoethyl]-L-Prolyl] Benzylamide]: the IC50 in the experiment on NF-AT was 13 µM; at FKBP, less than 5 µM.

Consider `O=C(NCc1ccccc1)[C@H](COCc1ccccc1)NC(=O)[C@@H]1CCCN1CC(=O)C12CC3CC(CC(C3)C1)C2` [Example 62, L-Serine-(O-Benzyl Ether), N-[1-(2-Adamantan-1-yl-2-Oxoethyl)-L-Prolyl] Benzylamide], for which the IC50 was 13 µM in the experiment on NF-AT and 1.3 µM on FKBP.

Consider `O=C(CC(NC(=O)[C@@H]1CCCN1CC(=O)C12CC3CC(CC(C3)C1)C2)c1ccccc1)NCc1ccccc1` (stereo partly drawn) [Example 63, L-β-Phenylalanine, N-[1-(2-Adamantan-1-yl-2-Oxoethyl)-L-Prolyl] Benzylamide], for which the half-maximal inhibitory concentration (IC50) in the experiment with NF-AT was 20 µM; on FKBP it was 0.3 µM.

As for `CC[C@H](C)[C@H](NC(=O)[C@@H]1CCCN1CC(=O)C12CC3CC(CC(C3)C1)C2)C(=O)N[C@H](C)c1ccccc1` [Example 66, L-Isoleucine, N-[1-(2-Adamantan-1-yl-2-Oxoethyl)-L-Prolyl] alpha-(R)-methylbenzylamide], the half-inhibitory concentration (IC50) in the experiment on NF-AT came to 57 µM; against FKBP, 0.1 µM.

As to `CC[C@H](C)[C@H](NC(=O)[C@@H]1CCCN1CC(=O)NC1C2CC3CC(C2)CC1C3)C(=O)NCc1ccccc1` (stereo partly drawn) [Example 90, L-Isoleucine, N-[1-(Adamantan-2-ylcarbamoylmethyl)-L-Prolyl] Benzylamide], the values for the IC50 in the experiment with NF-AT and against FKBP were more than 100 µM and less than 5 µM, respectively.

As to `CC[C@H](C)[C@H](NC(=O)[C@@H]1CCCN1CC(=O)O[C@H](c1ccccc1)C(C)C)C(=O)NCc1ccccc1` [Example 92, L-Isoleucine, N-[1-(2-(2-Methyl-1-(S)-Phenyl-1-Propoxy)-2-Oxoethyl)-L-Prolyl] Benzylamide], the IC50 in the experiment on NF-AT was found to be 44 µM; at FKBP, 0.6 µM.

For `CC[C@H](C)[C@H](NC(=O)[C@@H]1CCCN1CC(=O)O[C@@H](c1ccccc1)C(C)C)C(=O)NCc1ccccc1` [Example 93, L-Isoleucine, N-[1-(2-(2-Methyl-1-(R)-Phenyl-1-Propoxy)-2-Oxoethyl)-L-Prolyl] Benzylamide], the half-inhibitory concentration (IC50) with NF-AT came to 19 µM; against FKBP, 1.2 µM.

Usually IC50 stands for the concentration that inhibits the measured activity by half.
